# Values of other authors as cited in patent publication US20240230638A9, “SMALL MOLECULE SCREENING ASSAY FOR DIGITAL MICROFLUIDIC PLATFORM” (NICOYA LIFESCIENCES, INC., priority 2021, published 2024).
# Details: measure of hydrophobicity, literature values
row,octanol-water partitioning coefficients (logKow),Structure (SMILES)
1,6.3,CC(C)/N=c1\cc2n(-c3ccc(Cl)cc3)c3ccccc3nc-2cc1Nc1ccc(Cl)cc1 [Clofazimine]
2,5.19,O=C(O)c1ccccc1Nc1cccc(C(F)(F)F)c1 [Flufenamic acid]
3,3.97,CC(C)Cc1ccc(C(C)C(=O)O)cc1 (stereo not shown) [Ibuprofen]

row,Structure (SMILES),octanol-water partitioning coefficients (logKow)
1,NS(=O)(=O)c1ccccc1 [Benzenesulfonamide],0.31
